Among the data in ChEMBL document CHEMBL6120982, “Cell-penetrating anti-sense peptide nucleic acids targeting sulfatase 2 inhibit adipogenesis in human mesenchymal stem cells” (Bioorg Med Chem, 2024) are Tm, Activity and inhibition values, retold here.

The source made the active and inactive calls. The calls are words filed in the database; no cut-off is given here.

In data set [1] the test system is DNA. Briefly: Binding affinity to 10-mer DNA (unknown origin) assessed as melting temperature at 4 uM by UV-Vis spectrophotometric analysis. Format: nucleic-acid assay.
The test system of data set [2] is Mesenchymal stem cells. Briefly: Cytotoxicity against human BMMSC cells assessed as effect on cell viability upto 1 uM incubated for 24 hrs by CCK8 assay. It is filed as toxicity, cell-based. (In general: Tetrazolium dyes change colour on reduction, which living cells bring about.)
Data set [3] deals with DNA. The data set is described as follows: Binding affinity to N-terminal of 10-mer c-DNA (unknown origin) assessed as melting temperature at 4 uM by UV-Vis spectrophotometric analysis. It is filed as nucleic-acid assay.
For data set [4], the system named is DNA. Briefly: Binding affinity to C-terminal of 10-mer c-DNA (unknown origin) assessed as melting temperature at 4 uM by UV-Vis spectrophotometric analysis. It is filed as nucleic-acid assay.
The test system of data set [5] is Mesenchymal stem cells. Briefly: Inhibition of SULF2 mRNA expression in human BMMSC cells at 0.1 uM by RT-qPCR analysis. It is filed as functional, cell-based.
The subject of data set [6] is Mesenchymal stem cells. Briefly: Effect on osteogenesis in ascorbic acid/dexamethasone/beta-glycerol phosphate differentiated human BMMSC cells. Format: functional, cell-based.

With `Cc1cn(CC(=O)N(CCN)CC(=O)NCCN(CC(=O)NCCN(CC(=O)NCCN(CC(=O)NCCN(CC(=O)NCCN(CC(=O)NCCN(CC(=O)NCCN(CC(=O)NCCN(CC(=O)NCCN(CC(N)=O)C(=O)Cn2cnc3c(N)ncnc32)C(=O)Cn2ccc(N)nc2=O)C(=O)Cn2cnc3c(=O)[nH]c(N)nc32)C(=O)Cn2cnc3c(N)ncnc32)C(=O)Cn2ccc(N)nc2=O)C(=O)Cn2cnc3c(N)ncnc32)C(=O)Cn2cnc3c(=O)[nH]c(N)nc32)C(=O)Cn2cnc3c(N)ncnc32)C(=O)Cn2ccc(N)nc2=O)c(=O)[nH]c1=O`, the Tm in the data set with DNA [1] worked out at 66.2 °C.

Consider `NCCOCc1cc2cn(CC(=O)N(CCNC(=O)CN(CCNC(=O)CN(CCNC(=O)CN(CCNC(=O)CN(CCN)C(=O)Cn3ccc(N)nc3=O)C(=O)Cn3cnc4c(N)ncnc43)C(=O)Cn3cnc4c(=O)[nH]c(N)nc43)C(=O)Cn3cnc4c(N)ncnc43)CC(=O)NCCN(CC(=O)NCCN(CC(=O)NCCN(CC(=O)NCCN(CC(=O)NCCN(CC(N)=O)C(=O)Cn3ccc(N)nc3=O)C(=O)Cn3cnc4c(=O)[nH]c(N)nc43)C(=O)Cn3cnc4c(N)ncnc43)C(=O)Cn3cnc4c(=O)[nH]c(N)nc43)C(=O)Cn3cnc4c(N)ncnc43)c(=O)nc2[nH]1`, for which, in the data set with DNA [1], the Tm is 77.2 °C.

As to `NCCCCCNc1nc(N)c2ncn(CC(=O)N(CCNC(=O)CN(CCNC(=O)CN(CCNC(=O)CN(CCNC(=O)CN(CCNC(=O)CN(CCN)C(=O)Cn3cnc4c(N)ncnc43)C(=O)Cn3cnc4c(=O)[nH]c(N)nc43)C(=O)Cn3ccc(N)nc3=O)C(=O)Cn3cnc4c(N)ncnc43)C(=O)Cn3ccc(N)nc3=O)CC(=O)NCCN(CC(=O)NCCN(CC(=O)NCCN(CC(=O)NCCN(CC(N)=O)C(=O)Cn3cnc4c(N)ncnc43)C(=O)Cn3ccc(N)nc3=O)C(=O)Cn3cnc4c(N)ncnc43)C(=O)Cn3cnc4c(=O)[nH]c(N)nc43)c2n1`, in the data set on DNA [1], the Tm was 69.2 °C.

Turning to `NCCCCCNc1nc(N)c2ncn(CC(=O)N(CCNC(=O)CN(CCNC(=O)CN(CCNC(=O)CN(CCNC(=O)CN(CCN)C(=O)Cn3cnc4c(=O)[nH]c(N)nc43)C(=O)Cn3ccc(N)nc3=O)C(=O)Cn3cnc4c(N)ncnc43)C(=O)Cn3cnc4c(=O)[nH]c(N)nc43)CC(=O)NCCN(CC(=O)NCCN(CC(=O)NCCN(CC(=O)NCCN(CC(=O)NCCN(CC(N)=O)C(=O)Cn3cnc4c(=O)[nH]c(N)nc43)C(=O)Cn3cnc4c(N)ncnc43)C(=O)Cn3cnc4c(=O)[nH]c(N)nc43)C(=O)Cn3ccc(N)nc3=O)C(=O)Cn3cnc4c(=O)[nH]c(N)nc43)c2n1`, the Tm in the data set on DNA [1] turned out to be 75.9 °C.

In the case of `NCCCCCCNc1nc2c(ncn2CC(=O)N(CCNC(=O)CN(CCNC(=O)CN(CCNC(=O)CN(CCNC(=O)CN(CCNC(=O)CN(CCN)C(=O)Cn2cnc3c(=O)[nH]c(N)nc32)C(=O)Cn2ccc(N)nc2=O)C(=O)Cn2cnc3c(N)ncnc32)C(=O)Cn2cnc3c(=O)[nH]c(NCCCCCCN)nc32)C(=O)Cn2cnc3c(N)nc(NCCCCCN)nc32)CC(=O)NCCN(CC(=O)NCCN(CC(=O)NCCN(CC(=O)NCCN(CC(N)=O)C(=O)Cn2cnc3c(=O)[nH]c(N)nc32)C(=O)Cn2cnc3c(N)ncnc32)C(=O)Cn2cnc3c(=O)[nH]c(NCCCCCCN)nc32)C(=O)Cn2ccc(N)nc2=O)c(=O)[nH]1`, the Tm in the data set with DNA [1] came out at 74.8 °C.

Take `NCCCCCCNc1nc2c(ncn2CC(=O)N(CCN)CC(=O)NCCN(CC(=O)NCCN(CC(=O)NCCN(CC(=O)NCCN(CC(=O)NCCN(CC(=O)NCCN(CC(=O)NCCN(CC(=O)NCCN(CC(=O)NCCN(CC(N)=O)C(=O)Cn2cnc3c(=O)[nH]c(N)nc32)C(=O)Cn2cnc3c(N)ncnc32)C(=O)Cn2cnc3c(=O)[nH]c(N)nc32)C(=O)Cn2ccc(N)nc2=O)C(=O)Cn2cnc3c(=O)[nH]c(N)nc32)C(=O)Cn2cnc3c(N)nc(NCCCCCN)nc32)C(=O)Cn2cnc3c(=O)[nH]c(N)nc32)C(=O)Cn2cnc3c(N)ncnc32)C(=O)Cn2ccc(N)nc2=O)c(=O)[nH]1`: the Tm in the data set with DNA [1] stood at 76.9 °C.

Regarding `NCCN(CC(=O)NCCN(CC(=O)NCCN(CC(=O)NCCN(CC(=O)NCCN(CC(=O)NCCN(CC(=O)NCCN(CC(=O)NCCN(CC(=O)NCCN(CC(=O)NCCN(CC(N)=O)C(=O)Cn1ccc(N)nc1=O)C(=O)Cn1cnc2c(=O)[nH]c(N)nc21)C(=O)Cn1cnc2c(N)ncnc21)C(=O)Cn1cnc2c(=O)[nH]c(N)nc21)C(=O)Cn1cnc2c(N)ncnc21)C(=O)Cn1ccc(N)nc1=O)C(=O)Cn1cnc2c(N)ncnc21)C(=O)Cn1cnc2c(=O)[nH]c(N)nc21)C(=O)Cn1cnc2c(N)ncnc21)C(=O)Cn1ccc(N)nc1=O`, the Tm in the data set on DNA [1] was determined as 71 °C.

As for `Cc1cn(CC(=O)N(CCN)CC(=O)NCCN(CC(=O)NCCN(CC(=O)NCCN(CC(=O)NCCN(CC(=O)NCCN(CC(=O)NCCN(CC(=O)NCCN(CC(=O)NCCN(CC(=O)NCCN(CC(N)=O)C(=O)Cn2cnc3c(N)ncnc32)C(=O)Cn2cc3cc(COCCN)[nH]c3nc2=O)C(=O)Cn2cnc3c(=O)[nH]c(N)nc32)C(=O)Cn2cnc3c(N)ncnc32)C(=O)Cn2cc3cc(COCCN)[nH]c3nc2=O)C(=O)Cn2cnc3c(N)ncnc32)C(=O)Cn2cnc3c(=O)[nH]c(N)nc32)C(=O)Cn2cnc3c(N)ncnc32)C(=O)Cn2ccc(N)nc2=O)c(=O)[nH]c1=O`, the Tm in the data set on DNA [1] was 76.4 °C.

As to `NCCN(CC(=O)NCCN(CC(=O)NCCN(CC(=O)NCCN(CC(=O)NCCN(CC(=O)NCCN(CC(=O)NCCN(CC(=O)NCCN(CC(=O)NCCN(CC(=O)NCCN(CC(N)=O)C(=O)Cn1cnc2c(N)ncnc21)C(=O)Cn1ccc(N)nc1=O)C(=O)Cn1cnc2c(N)ncnc21)C(=O)Cn1cnc2c(=O)[nH]c(N)nc21)C(=O)Cn1cnc2c(N)ncnc21)C(=O)Cn1ccc(N)nc1=O)C(=O)Cn1cnc2c(N)ncnc21)C(=O)Cn1ccc(N)nc1=O)C(=O)Cn1cnc2c(=O)[nH]c(N)nc21)C(=O)Cn1cnc2c(N)ncnc21`, the Tm in the data set on DNA [1] stood at 65.2 °C.

With `Cc1cn(CC(=O)N(CCNC(=O)CN(CCNC(=O)CN(CCNC(=O)CN(CCNC(=O)CN(CCNC(=O)CN(CCNC(=O)CN(CCNC(=O)CN(CCNC(=O)CN(CCNC(=O)CN(CCNC(=O)CN(CCNC(=O)CN(CCNC(=O)CN(CCNC(=O)CN(CCNC(=O)CN(CCNC(=O)CN(CCNC(=O)CN(CCNC(=O)CN(CCNC(=O)CN(CCNC(=O)OCCC2c3ccccc3-c3ccccc32)C(=O)Cn2ccc(N)nc2=O)C(=O)Cn2cc3cc(COCCN)[nH]c3nc2=O)C(=O)Cn2ccc(N)nc2=O)C(=O)Cn2cc(C)c(=O)[nH]c2=O)C(=O)Cn2cnc3c(=O)[nH]c(NCCCCCCN)nc32)C(=O)Cn2ccc(N)nc2=O)C(=O)Cn2cc(C)c(=O)[nH]c2=O)C(=O)Cn2ccc(N)nc2=O)C(=O)Cn2cnc3c(=O)[nH]c(NCCCCCN)nc32)C(=O)Cn2ccc(N)nc2=O)C(=O)Cn2ccc(N)nc2=O)C(=O)Cn2cc(C)c(=O)[nH]c2=O)C(=O)Cn2cnc3c(=O)[nH]c(NCCCCCCN)nc32)C(=O)Cn2cc(C)c(=O)[nH]c2=O)C(=O)Cn2ccc(N)nc2=O)C(=O)Cn2ccc(N)nc2=O)C(=O)Cn2cnc3c(=O)[nH]c(NCCCCCCN)nc32)C(=O)Cn2cnc3c(=O)[nH]c(N)nc32)CC(=O)NCCN(N)C(=O)Cn2cnc3c(N)ncnc32)c(=O)[nH]c1=O`, the Activity result in the data set with Mesenchymal stem cells [2] is on record as “Non-toxic”. The Tm stood at 77 °C in the data set on DNA [3] and 63.5 °C in the data set on DNA [4]. For the same compound, the inhibition result in the data set with Mesenchymal stem cells [5] was “inactive”. Further, in the data set on Mesenchymal stem cells [6], the outcome was inactive.
